Reference: patent US6420563B1, “Small molecule modulators of G protein-coupled receptor six” (Arena Pharmaceuticals, Inc., priority 1998, dated 2002)

How the values were obtained:
Format in all cases: in vivo, rat
[1] = Intracerebroventricular (ICV) administration on 24-hour food-deprived rats; details: for water drunk: comparable to vehicle
Protocol: Animals were prepared with an ICV cannula aimed above the lateral ventricle. For this surgery, animals were placed under general anesthesia using continuous inhalation of isoflurane and secured in a Kopf stereotaxic instrument. Surgery was performed in a dedicated surgery room, using sterile instruments, surgical gloves and aseptic procedures to prevent clinical infections. The surgical site was shaved and disinfected with betadine solution and alcohol. Animals were observed continuously for the level of anesthesia by testing for the animals' responses to tail- or paw-pinch. A cannula made of 23 gauge stainless steel tubing (7 mm long) was lowered to a point 1 mm above the ventricle, using coordinates: A/P−0.6 mm from bregma, M/L+/−2.0 mm from bregma, D/V 3.2 mm below skull surface. The guide was anchored to the skull with three stainless steel screws and dental cement. Coordinates were based on stereotaxic atlas such as Paxinos and Watson sterotaxic atlas (Paxinos, G. and Watson, C, The Rat Brain, New York, Academic Press, 1982). After cannula implantation, a 30-gauge stainless steel dummy stylet was inserted into the cannula. At the conclusion of surgery, a heat source (heat lamp directed towards one half of recovery cage) was used to maintain body temperature while the animals recovered from anesthesia. Animals were allowed at least one week of recovery after surgery before ICV injection of compound was performed.
Animals were food-deprived for 24 hours prior to administration of the compound.
For ICV injection, the dummy stylet was removed from the implanted cannula, and a 30-gauge stainless steel injector cannula containing ARE112 suspension in a 45% cyclodextrin solution was inserted to a depth 1.5 mm beyond the ventral tip of the implanted cannula. The other (noninserted) end of the injector cannula was attached to 60 cm of PE10 tubing containing the compound suspension, which was attached at the free end of tubing to a 25 μl Hamilton syringe. Ten microliters of ARE112 suspension (containing, 0, 25, 50, and 100 nmol) were then delivered via gentle and even mechanical pressure to the plunger of the Hamilton syringe. The volume of injection was verified by marks on the PE 10 tubing previously calibrated with a 10 μl Hamilton syringe. At the conclusion of injection, any fluid observed from the dorsal tip of the implanted cannula upon withdrawal of the injector cannula was noted, and the dummy stylet was inserted into the implanted cannula.

[2] = Food/water intake and body weight in 24-hour food deprived rats, oral gavage (PO)
Outline: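 Rats food-deprived 24 h, then dosed by oral gavage (6.75–54 mg/kg, or 100–200 μmol/kg for analogs). Food intake tracked over hours post-dose (2.5 h up to 8 h) along with body weight gain, compared with vehicle-treated rats.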

[3] = Startle reflex in non-food deprived rats, oral administration; details: […] prior to testing, 12 db pre-pulse then 120 db pulse
Protocol: As further evidence of this mild sedative activity, animals were measured to determine their startle reflexes. In this assay, ARE112 was orally administered in non-food deprived rats 4.5 hours prior to testing. Animals were subjected to a pre-pulse of 12 db followed by a 120 db pulse and subsequently measured for the height in which the animals jumped.

[4] = Food intake in non-food deprived rats, oral gavage
Protocol: In a second assay, rats were treated with ARE112 by oral gavage but were not food deprived. Data evidence an even greater decrease in food intake, such that at 18 hours post administration of the compound, the vehicle rats had consumed about 15 grams of food while the injected rats (at all doses) ate 5 grams or less; about a three fold decrease in food consumption when treated with compound ARE112. (See, FIG. 9B).

[5] = 100 μmol/kg PO, second assay, Table D, vehicle 19.25

**Q.** For `O=C(N=C1SSC2=NCCN21)c1cccs1` [ARE112, N-(5,6-dihydro-3H-imidazo[2,1-c]-1,2,4-dithiazol-3-ylidene)-thiophen-2-carboxamide], which water drunk ([1]; 25 nmol ICV) is on record?
**A.** The water drunk was “about 17 grams”.

**Q.** What about the water drunk ([1]; 50 nmol ICV) of the same compound?
**A.** The water drunk was “about 17 grams”.

**Q.** What about the water consumed ([1]; 100 nmol ICV, relative to about 17 grams) of the same compound?
**A.** Its water consumed is “less than half that amount”.

**Q.** What about the weight gained ([1]; 100 nmol ICV, vehicle about 12 grams) of the same compound?
**A.** Its weight gained is 5 grams.

**Q.** And the food consumed ([1]; after three hours, ICV, vehicle about 2.5 grams)?
**A.** The food consumed was at most 1.0 grams.

**Q.** And the “less food consumed than vehicle” value ([1]; two hours post-administration, all doses (25, 50, 100 nmol ICV))?
**A.** Its value is “about 6 fold”.

**Q.** And the “Cumulative Food Intake (g) (8 hr post administration)” value ([2]; 100 μmol/kg PO, second assay, Table D, vehicle 14.0)?
**A.** Its value is 8.1 g.

**Q.** And the “Body Weight Gain (g) (6 hr post administration)” value [2, 5]?
**A.** Its value is 6.25 g.

**Q.** What about the “Cumulative Water Intake (g) (6 hr post administration)” value [2, 5] of the same compound?
**A.** Its value is 10.5 g.

**Q.** And the “body weight gain (FIG. 10C)” value ([2]; 100 μmol/kg oral, vehicle about 19.5 grams)?
**A.** Its value is 6 grams.

**Q.** And the food consumed ([2]; 27 mg/kg oral gavage, 2.5 hours, vehicle about 6 grams)?
**A.** The food consumed was “about 6 grams”.

**Q.** What about the food consumed ([2]; 27 mg/kg oral gavage, 8 hours post-administration, vehicle about 14 grams) of the same compound?
**A.** Its food consumed is “about 8 grams”.

**Q.** What about the food consumed ([2]; 54 mg/kg oral gavage, 2.5 hours, vehicle about 6 grams) of the same compound?
**A.** The food consumed was about 4 grams.

**Q.** What about the food consumed ([2]; 54 mg/kg oral gavage, 8 hours post-administration, vehicle about 14 grams) of the same compound?
**A.** Its food consumed is “about 6 grams”.

**Q.** What about the “startle reflex (height jumped)” value ([3]; 13.5 mg/kg oral) of the same compound?
**A.** Its value is “did not jump as high”.

**Q.** And the “startle reflex (height jumped)” value ([3]; 54 mg/kg oral)?
**A.** The value was “did not jump as high”.

**Q.** And the oral activity ([4]; 6.75 to 54 mg/kg)?
**A.** Its oral activity is “orally active”.

**Q.** And the “decrease in food consumption” value ([4]; 18 hours post administration)?
**A.** The value was “three”.

**Q.** What about the food consumed ([4]; all doses, 18 hours post administration, vehicle about 15 grams) of the same compound?
**A.** The food consumed was at most 5 grams.
